Data taken from US9540343B2 (Gilead Sciences, Inc., priority 2011, dated 2017).

Test system: HIV-IIIb
Assay: Test A: Antiviral assay in MT4 cells
Type: cell-based, HIV-1
Conditions: Human immunodeficiency virus 1, IIIB, MT4, 120 h, read-out: % inhibition at 2 μM, percent inhibition of virus-induced cell killing, from dose response curve at 2 uM drug; MT-4 cells infected with HIV-IIIb, 5 days, CellTiter-Glo

Structure (SMILES) | inhibition at 2 µM [%]
NC(=O)c1cc(-c2cccnc2[C@H](Cc2cc(F)cc(F)c2)NC(=O)Cn2nc(C(F)(F)F)c3c2C[C@H]2C[C@@H]32)ccc1F (single isomer, unassigned) [Example 173] | 94
NC(=O)c1cc(-c2cccnc2[C@H](Cc2cc(F)cc(F)c2)NC(=O)Cn2nc(C(F)(F)F)c3c2C[C@@H]2C[C@H]32)ccc1F (single isomer, unassigned) [Example 174] | 71
NC(=O)c1cc(-c2cccnc2[C@H](Cc2cc(F)cc(F)c2)NC(=O)Cn2nc(C(F)F)c3c2C(F)(F)C2CC32)ccc1F (single isomer, unassigned) [Example 215] | 80
NC(=O)c1cccc(-c2cccnc2[C@H](Cc2cc(F)cc(F)c2)NC(=O)Cc2c[nH]c3ccc(O)cc23)c1 [Example 39, (S)-3-(2-(2-(3,5-difluorophenyl)-1-(2-(5-hydroxy-1H-indol-3-yl)acetamido)ethyl)pyridin-3-yl)benzamide] | 99
NC(=O)c1cccc(-c2cccnc2[C@H](Cc2cc(F)cc(F)c2)NC(=O)Cc2c[nH]c3ccc(F)cc23)c1 [Example 50D, (S)-3-(2-(2-(3,5-difluorophenyl)-1-(2-(5-fluoro-1H-indol-3-yl)acetamido)ethyl)pyridin-3-yl)benzamide] | 106
NC(=O)c1cc(-c2cccnc2[C@H](Cc2cc(F)cc(F)c2)NC(=O)Cn2nc(C(F)F)c3c2C(F)(F)C2CC32)ccc1F (stereo partly drawn) [Example 60H, 5-(2-((1S)-1-(2-(3-(difluoromethyl)-5,5-difluoro-3b,4,4a,5-tetrahydro-1H-cyclopropa[3,4]cyclopenta[1,2-c]pyrazol-1-yl)acetamido)-2-(3,5-difluorophenyl)ethyl)pyridin-3-yl)-2-fluorobenzamide] | 97
NC(=O)c1cc(-c2cccnc2[C@H](Cc2cc(F)cc(F)c2)NC(=O)Cn2nc(C(F)F)c3c2C2CCC3C2)ccc1F (stereo partly drawn) [Example 83, (S)-5-(2-(2-(3,5-difluorophenyl)-1-(2-(4,5,6,7-tetrahydro-3-difluoromethyl-4,7-(methano)indazol-1-yl)acetamido)ethyl)pyridin-3-yl)-2-fluorobenzamide] | 92
NC(=O)c1cc(-c2cccnc2[C@H](Cc2cc(F)cc(F)c2)NC(=O)Cn2nc(C(F)(F)F)c3c2CCCC3(F)F)ccc1F [Example 102D, (S)-5-(2-(1-(2-(4,4-difluoro-3-(trifluoromethyl)-4,5,6,7-tetrahydro-1H-indazol-1-yl)acetamido)-2-(3,5-difluorophenyl)ethyl)pyridin-3-yl)-2-fluorobenzamide] | 50
NC(=O)c1cc(-c2cccnc2[C@H](Cc2cc(F)cc(F)c2)NC(=O)Cn2nc(C(F)(F)F)c3c2CCOC3)ccc1F [Example 112B, (S)-5-(2-(2-(3,5-difluorophenyl)-1-(2-(3-(trifluoromethyl)-6,7-dihydropyrano[4,3-c]pyrazol-1(4H)-yl)acetamido)ethyl)pyridin-3-yl)-2-fluorobenzamide] | 28
NC(=O)c1cc(-c2cccnc2[C@H](Cc2cc(F)cc(F)c2)NC(=O)Cn2nc(C(F)(F)F)c3c2CC2CC32)ccc1F (stereo partly drawn) [Example 122G, 5-(2-((1S)-2-(3,5-difluorophenyl)-1-(2-(3-(trifluoromethyl)-3b,4,4a,5-tetrahydro-1H-cyclopropa[3,4]cyclopenta[1,2-c]pyrazol-1-yl)acetamido)ethyl)pyridin-3-yl)-2-fluorobenzamide] | 101
NC(=O)c1cc(-c2cccnc2[C@H](Cc2cc(F)cc(F)c2)NC(=O)Cn2nc(C(F)(F)F)c3c2CCC3)ccc1F [Example 134, (S)-5-(2-(2-(3,5-difluorophenyl)-1-(2-(3-(trifluoromethyl)-5,6-dihydrocyclopenta[c]pyrazol-1(4H)-yl)acetamido)ethyl)pyridin-3-yl)-2-fluorobenzamide] | 98
NC(=O)c1cc(-c2cccnc2[C@H](Cc2cc(F)cc(F)c2)NC(=O)Cn2nc(C(F)(F)F)c3c2C2CC2C3)ccc1F (stereo partly drawn) [Example 169E, 5-(2-((1S)-2-(3,5-difluorophenyl)-1-(2-(3-(trifluoromethyl)-4,4-a,5,5a-tetrahydro-1H-cyclopropa[4,5]cyclopenta[1,2-c]pyrazol-1-yl)acetamido)ethyl)pyridin-3-yl)-2-fluorobenzamide] | 94
NC(=O)c1cc(-c2cccnc2[C@H](Cc2cc(F)cc(F)c2)NC(=O)Cn2nc(C(F)(F)F)c3c2C(F)(F)C2CC32)ccc1F (stereo partly drawn) [Example 181E, 5-(2-((1S)-1-(2-(5,5-difluoro-3-(trifluoromethyl)-3b,4,4a,5-tetrahydro-1H-cyclopropa[3,4]cyclopenta[1,2-c]pyrazol-1-yl)acetamido)-2-(3,5-difluorophenyl)ethyl)pyridin-3-yl)-2-fluorobenzamide] | 99
NC(=O)c1cc(-c2cccnc2[C@H](Cc2cc(F)cc(F)c2)NC(=O)Cn2nc(C(F)(F)F)c3ccccc32)ccc1F [Example 250, (S)-5-(2-(2-(3,5-difluorophenyl)-1-(2-(3-(trifluoromethyl)-1H-indazol-1-yl)acetamido)ethyl)pyridin-3-yl)-2-fluorobenzamide] | 19
O=C(Cc1c[nH]c2ccc(O)cc12)N[C@H](Cc1cc(F)cc(F)c1)c1ncncc1-c1ccc(Cl)cc1 [Example 284, (R)—N-(1-(5-(4-chlorophenyl)pyrimidin-4-yl)-2-(3,5-difluorophenyl)ethyl)-2-(5-hydroxy-1H-indol-3-yl)acetamide] | 50
NC(=O)c1cc(-c2cccnc2[C@H](Cc2cc(F)cc(F)c2)NC(=O)Cn2nc(C(F)(F)F)c3c2C(F)(F)CCC3)ccc1F [Example 311B, (S)-5-(2-(1-(2-(7,7-difluoro-3-(trifluoromethyl)-4,5,6,7-tetrahydro-1H-indazol-1-yl)acetamido)-2-(3,5-difluorophenyl)ethyl)pyridin-3-yl)-2-fluorobenzamide] | 97
O=C(Cc1c[nH]c2ccc(O)cc12)N[C@@H](Cc1cc(F)cc(F)c1)c1ncncc1-c1ccc(Cl)cc1 [Example 316, (S)—N-(1-(5-(4-chlorophenyl)pyrimidin-4-yl)-2-(3,5-difluorophenyl)ethyl)-2-(5-hydroxy-1H-indol-3-yl)acetamide] | 100
NC(=O)c1cc(-c2cccnc2[C@H](Cc2cc(F)cc(F)c2)NC(=O)Cn2nc(C(F)F)c3c2C(F)(F)CCC3(F)F)ccc1F [Example 344, (S)-5-(2-(1-(2-(3-(difluoromethyl)-4,4,7,7-tetrafluoro-4,5,6,7-tetrahydro-1H-indazol-1-yl)acetamido)-2-(3,5-difluorophenyl)ethyl)pyridin-3-yl)-2-fluorobenzamide] | 93
NC(=O)c1cc(-c2cccnc2[C@H](Cc2cc(F)cc(F)c2)NC(=O)Cn2nc(C(F)(F)F)c3c2CNCC3)ccc1F [Example 352, (S)-5-(2-(2-(3,5-difluorophenyl)-1-(2-(3-(trifluoromethyl)-4,5,6,7-tetrahydro-1H-pyrazolo[3,4-c]pyridin-1-yl)acetamido)ethyl)pyridin-3-yl)-2-fluorobenzamide] | 16
NC(=O)c1cccc(-c2cccnc2[C@H](Cc2cc(F)cc(F)c2)NC(=O)Cn2ccc3ccccc32)c1 [Example 426, (S)-3-(2-(1-(2-(1H-indol-1-yl)acetamido)-2-(3,5-difluorophenyl)ethyl)pyridin-3-yl)benzamide] | 19
O=C(Cc1c[nH]c2ccc(O)cc12)NC(Cc1cc(F)cc(F)c1)c1nccnc1-c1ccc(Cl)cc1 (stereo not shown) [Example 443I, N-(1-(3-(4-chlorophenyl)pyrazin-2-yl)-2-(3,5-difluorophenyl)ethyl)-2-(5-hydroxy-1H-indol-3-yl)acetamide] | 82
NC(=O)c1cc(-c2cccnc2[C@H](Cc2cc(F)cc(F)c2)NC(=O)Cn2ccc(C(F)(F)F)n2)ccc1F [Example 455, (S)-5-(2-(2-(3,5-difluorophenyl)-1-(2-(3-(trifluoromethyl)-1H-pyrazol-1-yl)acetamido)ethyl)pyridin-3-yl)-2-fluorobenzamide] | 4
NC(=O)c1cc(-c2cccnc2[C@H](Cc2cc(F)cc(F)c2)NC(=O)Cn2nc(C(F)(F)F)c3c2C2CC2C3(F)F)ccc1F (stereo partly drawn) [Example 462J, 5-(2-((1S)-1-(2-(4,4-difluoro-3-(trifluoromethyl)-4,4-a,5,5a-tetrahydro-1H-cyclopropa[4,5]cyclopenta[1,2-c]pyrazol-1-yl)acetamido)-2-(3,5-difluorophenyl)ethyl)pyridin-3-yl)-2-fluorobenzamide] | 2
NC(=O)c1cc(-c2cccnc2[C@H](Cc2cc(F)cc(F)c2)NC(=O)Cn2nc(C(F)F)c(C3CC3)c2C(F)F)ccc1F [Example 562, (S)-5-(2-(1-(2-(4-cyclopropyl-3,5-bis(difluoromethyl)-1H-pyrazol-1-yl)acetamido)-2-(3,5-difluorophenyl)ethyl)pyridin-3-yl)-2-fluorobenzamide] | 42

Same assay, conditions: percent inhibition of virus-induced cell killing, from dose response curve at 2 uM drug; MT-4 cells infected with HIV-IIIb, 5 days, CellTiter-Glo

Structure (SMILES) | % inhibition at 2 μM [%]
NC(=O)c1cc(-c2cccnc2[C@H](Cc2cc(F)cc(F)c2)NC(=O)Cn2nc(C(F)F)c3c2C(F)(F)C2CC32)ccc1F (single isomer, unassigned) [Example 216] | 86
NC(=O)c1cc(-c2cccnc2[C@H](Cc2cc(F)cc(F)c2)NC(=O)Cn2nc(C(F)(F)F)c3c2C(F)(F)C2CC32)ccc1F (single isomer, unassigned) [Example 449] | 94
NC(=O)c1cc(-c2cccnc2[C@H](Cc2cc(F)cc(F)c2)NC(=O)Cn2nc(C(F)(F)F)c3c2C(F)(F)C2CC32)ccc1F (single isomer, unassigned) [Example 450] | 33
NC(=O)c1cc(-c2cccnc2[C@H](Cc2cc(F)cc(F)c2)NC(=O)Cn2nc(C(F)(F)F)c3c2[C@@H]2C[C@@H]2C3)ccc1F [Example 187, 5-(2-((S)-2-(3,5-difluorophenyl)-1-(2-((4aR,5aR)-3-(trifluoromethyl)-4,4-a,5,5a-tetrahydro-1H-cyclopropa[4,5]cyclopenta[1,2-c]pyrazol-1-yl)acetamido)ethyl)pyridin-3-yl)-2-fluorobenzamide] | 31
